pIC50, pKi: −log10 of the molar value. Converted amounts (≈) assume the structure as drawn. “Also recorded” adds a separate entry of the source.
Key:
[1] = test system: Vibrio cholerae neuraminidase; settings: literature; cited from earlier work
sheep neuraminidase = test: In vitro inhibition of sheep neuraminidase; assay type: biochemical; settings: pH 4.5
[2] = test system: influenza A/Singapore/1/57 (H2N2); test: microbe, parasite or virus in culture; assay type: cell-based; settings: H2N2, MDCK, 72 h, read-out: IC50 Plaque Reduction, Influenza A
[3] = test system: Influenza B/Victoria/102/85; test: microbe, parasite or virus in culture; assay type: cell-based; settings: MDCK, 72 h, read-out: IC50 Plaque Reduction, Influenza B
[4] = test system: H2N2 influenza A virus (A/Sing/1/57); assay type: in vivo, mice
neuraminidase = settings: literature; cited from earlier work
[5] = literature; cited from earlier work
[6] = test system: Neuraminidase in at least some strains of influenza or parainfluenza viruses; settings: in vitro; Zakstel'skaya et al. 1972; cited from earlier work
influenza virus = test: microbe, parasite or virus in culture; assay type: cell-based; settings: unidentified influenza virus, read-out: IC50 plaque reduction
[7] = Effective dose in vivo (statement in description); settings: compared with DANA

## CC(=O)NC1C(O)CC(C(=O)O)OC1C(O)C(O)CO (centres unmarked)
[1]
  inhibition of Vibrio cholerae neuraminidase: did not inhibit

## CC(=O)N[C@H]1[C@H]([C@H](O)[C@H](O)CO)OC(C(=O)O)=C[C@@H]1N=C(N)N [Compound 7, Ammonium 5-Acetamido-4-guanidino-2,3,4,5-tetradeoxy-D-glycero-D-galacto-non-2-enopyranosonate]
Sheep neuraminidase
  pKi: < 2.00
[2]
  pIC50: 5.80
[3]
  pIC50: 5.80
[4]; Experiment 2, 12.5 mg/kg intranasal, days 1-3
  % AUC (lung virus titre, compared to untreated mice): 0.03%
[4]; intranasal, before and during challenge, 1 to 3 days after infection
  titre of virus in lung tissue: reduced the titre of virus in lung tissue

## O=C(O)C1=C[C@H](O)[C@@H](NC(=O)C(F)(F)F)[C@H]([C@H](O)[C@H](O)CO)O1 [FANA, 2-deoxy-2,3-dehydro-N-trifluoroacetyl-neuraminic acid]
neuraminidase
  activity among neuraminidase inhibitors of the DANA type: most active
[5]
  anti-viral activity in vivo: not to possess in vivo anti-viral activity; also recorded: inactive in vivo

## CC(=O)NC1C(O)CC(OC2C(O)C(CO)OC(O)C2NC(C)=O)(C(=O)O)OC1C(O)C(O)CO [O-α-N-acetyl-D-neuraminosyl-)2→3)-2-acetamido-2-deoxy-D-glucose]
[6]
  inhibition of influenza or parainfluenza virus neuraminidase: inhibited in vitro

## COC(=O)C1=C[C@H](O)[C@@H](NC(C)=O)[C@H]([C@H](O)[C@H](O)CO)O1 [methyl ester of DANA]
Influenza virus
  IC50: 50 to 100 µg/mL (≈ 164 to 328 µM)
[7]
  effective dose, in words: effective at proportionally higher dose

— patent US5648379A (priority 1990, dated 1997)
